Measurements taken from BindingDB's records for PubMed 20126400 (University of Oklahoma, 2010).

Assays:
Assay in all cases: Ray2010 Assay 74
Histamine H3 receptor = Histamine H3 receptor (Homo sapiens, UniProt Q9Y5N1)
Excerpt: (§1) Table S2 shows raw Ki data for the current study combined with data collected from the literature for the ten additional compounds.

Cannabinoid receptor 2 = Cannabinoid receptor 2 (Homo sapiens, UniProt P34972)
Excerpt: as §1

Vasopressin V1b receptor = molecular target: T1, Vasopressin V1b receptor (Homo sapiens, UniProt P47901)
T1 sequence (P47901 whole entry): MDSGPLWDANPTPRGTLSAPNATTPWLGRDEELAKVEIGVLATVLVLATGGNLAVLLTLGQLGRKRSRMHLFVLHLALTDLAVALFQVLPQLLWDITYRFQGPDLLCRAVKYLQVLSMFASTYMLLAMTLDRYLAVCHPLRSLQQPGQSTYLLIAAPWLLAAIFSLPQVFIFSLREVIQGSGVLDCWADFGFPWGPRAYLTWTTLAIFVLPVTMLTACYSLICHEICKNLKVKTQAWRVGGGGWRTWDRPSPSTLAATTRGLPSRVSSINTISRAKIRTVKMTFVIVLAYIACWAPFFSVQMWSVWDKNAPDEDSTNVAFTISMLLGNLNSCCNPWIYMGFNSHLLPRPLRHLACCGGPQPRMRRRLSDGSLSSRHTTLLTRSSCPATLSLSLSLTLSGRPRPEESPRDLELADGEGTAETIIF
Excerpt: as §1

Nischarin = Nischarin (Homo sapiens, UniProt Q9Y2I1)
Excerpt: as §1

[1] = molecular target: Beta-1 adrenergic receptor (Homo sapiens, UniProt P08588)
Excerpt: as §1

Vasopressin V1a receptor = Vasopressin V1a receptor (Homo sapiens, UniProt P37288)
Excerpt: as §1

[2] = molecular target: Voltage-dependent calcium channel subunit alpha-2/delta-1 (Homo sapiens, UniProt P54289)
Excerpt: as §1

[3] = molecular target: Muscarinic acetylcholine receptor M3 (Homo sapiens, UniProt P20309)
Excerpt: as §1

[4] = molecular target: T2, Gamma-aminobutyric acid receptor subunit alpha-1/Adenosine receptor A1 (Homo sapiens, UniProt P14867+P30542)
T2 sequence (P30542 whole entry): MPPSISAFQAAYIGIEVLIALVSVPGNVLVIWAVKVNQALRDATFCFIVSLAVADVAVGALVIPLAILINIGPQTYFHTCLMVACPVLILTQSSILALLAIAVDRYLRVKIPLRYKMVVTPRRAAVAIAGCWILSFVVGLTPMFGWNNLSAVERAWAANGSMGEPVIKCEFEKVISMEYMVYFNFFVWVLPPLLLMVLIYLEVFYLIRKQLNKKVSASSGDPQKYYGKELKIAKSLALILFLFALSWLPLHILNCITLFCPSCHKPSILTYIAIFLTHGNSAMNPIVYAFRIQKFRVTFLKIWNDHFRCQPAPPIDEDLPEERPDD
T2 sequence (P14867 whole entry): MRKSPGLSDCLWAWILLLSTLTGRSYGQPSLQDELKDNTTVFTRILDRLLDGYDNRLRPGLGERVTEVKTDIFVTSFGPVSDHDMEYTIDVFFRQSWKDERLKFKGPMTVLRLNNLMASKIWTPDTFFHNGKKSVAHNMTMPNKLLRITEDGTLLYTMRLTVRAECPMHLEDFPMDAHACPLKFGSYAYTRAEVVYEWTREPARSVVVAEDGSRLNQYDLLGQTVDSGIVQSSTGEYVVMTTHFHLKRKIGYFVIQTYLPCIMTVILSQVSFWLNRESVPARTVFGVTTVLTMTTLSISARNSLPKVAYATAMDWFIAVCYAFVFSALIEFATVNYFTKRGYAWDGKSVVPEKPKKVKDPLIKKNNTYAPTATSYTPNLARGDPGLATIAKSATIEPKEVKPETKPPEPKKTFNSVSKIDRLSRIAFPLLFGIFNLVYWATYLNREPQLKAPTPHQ
Excerpt: as §1

[5] = molecular target: Sigma intracellular receptor 2 (Homo sapiens, UniProt Q5BJF2)
Excerpt: as §1

[6] = molecular target: T3, Muscarinic acetylcholine receptor M1 (Homo sapiens, UniProt P11229)
T3 sequence (P11229 whole entry): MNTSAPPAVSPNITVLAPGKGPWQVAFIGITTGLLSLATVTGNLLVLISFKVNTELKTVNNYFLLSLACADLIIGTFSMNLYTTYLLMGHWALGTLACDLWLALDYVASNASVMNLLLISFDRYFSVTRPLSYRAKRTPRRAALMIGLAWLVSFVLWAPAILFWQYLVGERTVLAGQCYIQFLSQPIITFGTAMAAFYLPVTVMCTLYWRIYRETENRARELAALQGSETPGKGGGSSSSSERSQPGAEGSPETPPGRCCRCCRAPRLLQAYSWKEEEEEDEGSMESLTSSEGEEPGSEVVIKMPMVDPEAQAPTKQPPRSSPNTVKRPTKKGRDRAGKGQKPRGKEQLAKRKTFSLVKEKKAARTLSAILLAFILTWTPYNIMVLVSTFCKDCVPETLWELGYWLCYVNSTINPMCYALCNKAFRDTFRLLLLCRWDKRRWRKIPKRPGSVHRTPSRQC
Excerpt: as §1

[7] = molecular target: T4, Alpha-2C adrenergic receptor (Homo sapiens, UniProt P18825)
T4 sequence (P18825 whole entry): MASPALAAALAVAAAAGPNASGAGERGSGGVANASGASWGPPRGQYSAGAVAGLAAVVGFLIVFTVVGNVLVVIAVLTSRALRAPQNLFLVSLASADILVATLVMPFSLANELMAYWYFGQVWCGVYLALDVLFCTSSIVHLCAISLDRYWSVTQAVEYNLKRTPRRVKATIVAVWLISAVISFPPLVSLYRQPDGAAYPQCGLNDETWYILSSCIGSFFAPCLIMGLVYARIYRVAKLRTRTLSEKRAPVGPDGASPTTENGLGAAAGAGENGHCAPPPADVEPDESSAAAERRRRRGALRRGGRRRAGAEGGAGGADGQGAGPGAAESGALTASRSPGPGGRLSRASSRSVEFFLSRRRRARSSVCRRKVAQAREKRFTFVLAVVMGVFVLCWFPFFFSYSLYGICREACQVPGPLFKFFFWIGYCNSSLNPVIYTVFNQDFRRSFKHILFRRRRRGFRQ
Excerpt: as §1

Sequence of Histamine H3 receptor (Q9Y5N1 whole entry): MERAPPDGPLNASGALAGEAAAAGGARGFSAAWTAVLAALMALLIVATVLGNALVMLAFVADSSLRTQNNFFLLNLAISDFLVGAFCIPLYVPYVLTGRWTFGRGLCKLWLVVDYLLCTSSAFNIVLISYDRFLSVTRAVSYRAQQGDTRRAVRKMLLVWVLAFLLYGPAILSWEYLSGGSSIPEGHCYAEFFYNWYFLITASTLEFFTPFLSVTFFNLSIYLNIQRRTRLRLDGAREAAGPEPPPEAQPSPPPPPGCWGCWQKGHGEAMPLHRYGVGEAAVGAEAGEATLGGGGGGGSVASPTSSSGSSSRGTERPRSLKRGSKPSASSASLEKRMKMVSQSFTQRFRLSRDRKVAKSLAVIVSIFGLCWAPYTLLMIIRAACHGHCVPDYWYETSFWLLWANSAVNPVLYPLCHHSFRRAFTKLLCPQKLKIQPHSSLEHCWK
Sequence of Nischarin (Q9Y2I1 whole entry): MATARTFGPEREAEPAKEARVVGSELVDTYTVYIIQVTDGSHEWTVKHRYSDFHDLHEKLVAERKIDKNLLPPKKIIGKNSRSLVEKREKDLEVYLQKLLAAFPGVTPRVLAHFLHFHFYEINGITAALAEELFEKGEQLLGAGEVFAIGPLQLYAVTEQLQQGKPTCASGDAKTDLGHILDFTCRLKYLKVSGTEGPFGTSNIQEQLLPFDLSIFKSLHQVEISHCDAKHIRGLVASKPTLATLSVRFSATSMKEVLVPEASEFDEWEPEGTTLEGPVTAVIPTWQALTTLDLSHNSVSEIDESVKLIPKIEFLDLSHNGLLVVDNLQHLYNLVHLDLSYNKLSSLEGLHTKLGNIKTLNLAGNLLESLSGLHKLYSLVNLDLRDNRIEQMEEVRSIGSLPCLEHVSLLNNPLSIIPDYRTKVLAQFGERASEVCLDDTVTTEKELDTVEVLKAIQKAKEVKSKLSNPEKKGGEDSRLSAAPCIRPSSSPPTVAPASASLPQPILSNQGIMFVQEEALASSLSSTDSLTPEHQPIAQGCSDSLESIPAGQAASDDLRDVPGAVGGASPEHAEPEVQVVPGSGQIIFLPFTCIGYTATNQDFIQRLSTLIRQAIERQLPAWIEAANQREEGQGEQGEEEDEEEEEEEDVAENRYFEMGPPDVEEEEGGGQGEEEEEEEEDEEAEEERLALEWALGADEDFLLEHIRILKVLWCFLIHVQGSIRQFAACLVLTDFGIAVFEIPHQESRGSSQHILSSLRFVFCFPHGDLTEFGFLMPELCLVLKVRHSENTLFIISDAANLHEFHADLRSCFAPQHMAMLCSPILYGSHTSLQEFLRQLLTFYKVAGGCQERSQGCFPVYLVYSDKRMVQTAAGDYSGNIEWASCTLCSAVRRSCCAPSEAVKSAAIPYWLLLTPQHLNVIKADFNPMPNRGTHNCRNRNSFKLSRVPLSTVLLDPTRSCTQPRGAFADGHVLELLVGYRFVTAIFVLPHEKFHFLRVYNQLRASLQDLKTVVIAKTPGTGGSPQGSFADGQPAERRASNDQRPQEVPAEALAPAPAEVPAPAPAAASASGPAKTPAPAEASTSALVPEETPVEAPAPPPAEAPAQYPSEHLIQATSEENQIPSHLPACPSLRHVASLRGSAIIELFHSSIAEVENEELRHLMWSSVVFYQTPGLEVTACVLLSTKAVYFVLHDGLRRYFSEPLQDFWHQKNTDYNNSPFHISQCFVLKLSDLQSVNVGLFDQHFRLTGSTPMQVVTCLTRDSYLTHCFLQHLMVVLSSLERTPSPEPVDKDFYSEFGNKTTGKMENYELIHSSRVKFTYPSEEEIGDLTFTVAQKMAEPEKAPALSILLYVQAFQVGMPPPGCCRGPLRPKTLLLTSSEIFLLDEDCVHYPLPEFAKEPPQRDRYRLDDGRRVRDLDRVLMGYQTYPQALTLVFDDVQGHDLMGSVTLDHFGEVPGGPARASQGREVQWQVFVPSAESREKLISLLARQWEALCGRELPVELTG
Sequence of Muscarinic acetylcholine receptor M3 (P20309 whole entry): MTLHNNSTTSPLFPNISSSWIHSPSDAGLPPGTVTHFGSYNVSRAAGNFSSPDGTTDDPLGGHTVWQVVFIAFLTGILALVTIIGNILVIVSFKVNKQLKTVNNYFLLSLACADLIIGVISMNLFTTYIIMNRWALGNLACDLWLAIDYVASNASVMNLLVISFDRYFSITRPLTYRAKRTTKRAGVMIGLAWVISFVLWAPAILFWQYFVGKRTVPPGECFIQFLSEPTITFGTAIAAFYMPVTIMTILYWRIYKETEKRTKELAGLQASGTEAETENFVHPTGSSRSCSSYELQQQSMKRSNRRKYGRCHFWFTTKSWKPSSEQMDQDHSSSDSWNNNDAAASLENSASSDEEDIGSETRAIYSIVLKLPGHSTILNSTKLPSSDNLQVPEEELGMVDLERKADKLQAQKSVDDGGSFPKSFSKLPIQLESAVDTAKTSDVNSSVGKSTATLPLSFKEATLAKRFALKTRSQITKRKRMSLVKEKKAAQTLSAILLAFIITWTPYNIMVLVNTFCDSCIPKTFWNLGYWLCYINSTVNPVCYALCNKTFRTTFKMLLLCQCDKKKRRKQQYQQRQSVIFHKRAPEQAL
Sequence of Cannabinoid receptor 2 (P34972 whole entry): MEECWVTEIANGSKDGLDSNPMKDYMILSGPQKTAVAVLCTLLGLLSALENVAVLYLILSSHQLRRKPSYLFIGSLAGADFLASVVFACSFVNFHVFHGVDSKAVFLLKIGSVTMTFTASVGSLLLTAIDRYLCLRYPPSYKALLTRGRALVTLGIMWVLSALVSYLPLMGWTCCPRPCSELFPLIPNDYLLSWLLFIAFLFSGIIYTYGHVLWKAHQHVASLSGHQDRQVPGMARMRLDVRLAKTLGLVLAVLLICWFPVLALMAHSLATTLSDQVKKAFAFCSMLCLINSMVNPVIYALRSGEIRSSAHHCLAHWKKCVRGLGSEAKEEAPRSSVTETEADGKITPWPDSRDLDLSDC
Sequence of Beta-1 adrenergic receptor (P08588 whole entry): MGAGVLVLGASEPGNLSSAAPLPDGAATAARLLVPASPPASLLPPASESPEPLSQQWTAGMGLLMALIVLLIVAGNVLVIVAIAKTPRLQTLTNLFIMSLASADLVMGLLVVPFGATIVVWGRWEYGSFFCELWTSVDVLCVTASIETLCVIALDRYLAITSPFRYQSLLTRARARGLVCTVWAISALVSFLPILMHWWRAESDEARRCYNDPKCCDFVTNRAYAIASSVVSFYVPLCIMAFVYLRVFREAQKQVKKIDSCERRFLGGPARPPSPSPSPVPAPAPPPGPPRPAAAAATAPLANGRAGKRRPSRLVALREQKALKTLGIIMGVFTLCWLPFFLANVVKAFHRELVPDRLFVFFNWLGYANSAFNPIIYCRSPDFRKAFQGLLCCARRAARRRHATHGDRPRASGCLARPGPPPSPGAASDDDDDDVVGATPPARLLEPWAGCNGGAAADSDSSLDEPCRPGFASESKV
Sequence of Voltage-dependent calcium channel subunit alpha-2/delta-1 (P54289 25-956 limits assumed): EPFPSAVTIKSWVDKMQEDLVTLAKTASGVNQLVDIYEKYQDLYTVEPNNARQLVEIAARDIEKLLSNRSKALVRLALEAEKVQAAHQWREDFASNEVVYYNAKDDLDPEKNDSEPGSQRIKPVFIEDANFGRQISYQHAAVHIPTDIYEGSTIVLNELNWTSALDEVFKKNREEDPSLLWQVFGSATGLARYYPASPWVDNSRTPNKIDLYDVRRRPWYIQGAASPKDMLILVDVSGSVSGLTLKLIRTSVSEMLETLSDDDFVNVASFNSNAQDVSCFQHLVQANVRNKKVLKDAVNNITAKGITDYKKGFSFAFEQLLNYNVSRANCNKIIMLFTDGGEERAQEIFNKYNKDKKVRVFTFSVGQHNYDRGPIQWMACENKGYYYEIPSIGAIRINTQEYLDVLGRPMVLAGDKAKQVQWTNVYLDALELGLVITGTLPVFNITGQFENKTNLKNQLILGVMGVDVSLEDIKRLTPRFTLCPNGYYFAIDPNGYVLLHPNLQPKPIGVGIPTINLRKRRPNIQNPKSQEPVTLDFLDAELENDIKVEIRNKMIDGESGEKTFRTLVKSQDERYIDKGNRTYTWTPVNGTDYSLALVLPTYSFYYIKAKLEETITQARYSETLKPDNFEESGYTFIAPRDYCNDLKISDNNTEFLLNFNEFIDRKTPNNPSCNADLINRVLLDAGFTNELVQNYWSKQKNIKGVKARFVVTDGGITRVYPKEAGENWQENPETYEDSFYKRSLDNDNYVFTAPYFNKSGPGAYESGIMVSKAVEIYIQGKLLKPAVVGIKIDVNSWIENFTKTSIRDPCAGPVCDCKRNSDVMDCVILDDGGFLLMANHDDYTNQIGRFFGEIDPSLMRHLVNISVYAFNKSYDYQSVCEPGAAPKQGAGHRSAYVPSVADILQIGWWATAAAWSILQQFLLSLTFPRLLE
Sequence of Voltage-dependent calcium channel subunit alpha-2/delta-1 (P54289 957-1103 limits assumed): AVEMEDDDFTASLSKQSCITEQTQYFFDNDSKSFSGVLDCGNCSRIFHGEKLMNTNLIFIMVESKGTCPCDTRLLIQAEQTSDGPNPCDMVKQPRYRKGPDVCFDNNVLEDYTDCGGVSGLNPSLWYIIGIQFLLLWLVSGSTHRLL
Sequence of Vasopressin V1a receptor (P37288 whole entry): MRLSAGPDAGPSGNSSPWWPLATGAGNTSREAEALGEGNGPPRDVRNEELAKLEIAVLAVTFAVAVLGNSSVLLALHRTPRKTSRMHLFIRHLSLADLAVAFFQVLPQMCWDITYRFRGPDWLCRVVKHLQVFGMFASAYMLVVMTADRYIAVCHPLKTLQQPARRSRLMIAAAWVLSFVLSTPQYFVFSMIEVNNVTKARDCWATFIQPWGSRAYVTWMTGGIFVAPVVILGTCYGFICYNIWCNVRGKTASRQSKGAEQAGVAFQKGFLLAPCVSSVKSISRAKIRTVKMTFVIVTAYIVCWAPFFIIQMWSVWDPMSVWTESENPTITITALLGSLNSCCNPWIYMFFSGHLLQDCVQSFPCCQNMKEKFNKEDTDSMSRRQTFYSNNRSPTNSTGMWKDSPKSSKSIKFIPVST

Row | SMILES | Ki (Histamine H3 receptor) [µM] | Ki (Cannabinoid receptor 2) [µM] | Ki (Vasopressin V1b receptor) [µM] | Ki (Nischarin) [µM] | Ki [1] [µM] | Ki (Vasopressin V1a receptor) [µM] | Ki [2] [µM] | Ki [3] [µM] | Ki [4] [µM] | Ki [5] [µM] | Ki [6] [µM] | Ki [7] [µM]
1 | CCSc1cc(OC)c(CC(N)CC)cc1OC (stereo unspecified) [1-(4-Ethylsulfanyl-2,5-dimethoxy-benzyl)-propylamine] | > 10 | > 10 | > 10 | 0.947 | > 10 | > 10 | > 10 | > 10 | > 10 | > 10 | > 10 | > 10
2 | CCc1cc(OC)c(CCN)cc1OC [2-(2,5-dimethoxy-4-ethylphenyl)ethylamine] | > 10 | > 10 | > 10 | > 10 | > 10 | > 10 | > 10 | 2.56 | > 10 | > 10 | > 10 | 0.0902
3 | CCSc1cc(OC)c(CC(C)N)cc1OC (stereo unspecified) [2-(4-Ethylsulfanyl-2,5-dimethoxy-phenyl)-1-methyl-ethylamine] | > 10 | > 10 | > 10 | 0.32 | 6.79 | > 10 | > 10 | 1.91 | > 10 | > 10 | > 10 | 1.39
4 | CCSc1cc(OC)c(CCN)cc1OC [2C-T-2] | > 10 | > 10 | > 10 | 2.08 | 9.2 | > 10 | > 10 | 0.692 | > 10 | > 10 | > 10 | 0.166
5 | COc1cc(CCN)cc(OC)c1OC [3,4,5-trimethoxyphenylethylamine] | > 10 | > 10 | > 10 | 2.68 | > 10 | > 10 | > 10 | > 10 | > 10 | > 10 | > 10 | 0.745
6 | COc1ccc2[nH]cc(CCN(C(C)C)C(C)C)c2c1 [5-meo-dipt] | > 10 | > 10 | > 10 | 0.76 | > 10 | > 10 | > 10 | > 10 | > 10 | 3 | > 10 | 2.86
7 | COc1ccc2[nH]cc(CCN(C)C(C)C)c2c1 [5-meo-mipt] | > 10 | > 10 | > 10 | 0.879 | > 10 | > 10 | > 10 | > 10 | > 10 | 0.918 | > 10 | 0.637
8 | CN(C)CCc1c[nH]c2cc(F)ccc12 [6-f-dmt] | > 10 | > 10 | > 10 | 0.898 | > 10 | > 10 | > 10 | > 10 | > 10 | 7.13 | > 10 | 0.149
